Data reported in ChEMBL document CHEMBL1132385 (J Med Chem, 1999).

What follows are compounds tested against Neuronal acetylcholine receptor (assay: Evaluated for its binding affinity towards Nicotinic acetylcholine receptor in rat brain homogenate).
Format: tissue-based

Ki [µM] | SMILES
> 10 | CN(C)CCC(O)c1ccccc1 (centres undefined)
2.49 | CN1CCCCC1CCc1ccccc1 (centres undefined)
> 10 | CN(CCC(=O)c1ccccc1)CCC(=O)c1ccccc1
> 10 | CN(CCCc1ccccc1)CCCc1ccccc1
> 10 | CN1CCCC[C@H]1C[C@H](O)c1ccccc1
0.005 | CN1[C@@H](CC(=O)c2ccccc2)CCC[C@H]1C[C@H](Cl)c1ccccc1
2.03 | C[N+]1(C)[C@@H](CC(=O)c2ccccc2)CCC[C@H]1C[C@H](O)c1ccccc1
> 10 | CN1[C@@H](CCc2ccccc2)CCC[C@H]1CCc1ccccc1 [LOBELANE]

SMILES | Ki [µM]
CN1[C@@H](CCc2ccccc2)CCC[C@H]1C[C@H](O)c1ccccc1 | 0.235
CN1[C@H](CCc2ccccc2)CCC[C@@H]1CC(=O)c1ccccc1 | 0.11
CN1[C@@H](C[C@@H](O)c2ccccc2)CCC[C@H]1C[C@H](O)c1ccccc1 | 0.3
CN1[C@@H](CC(=O)c2ccccc2)CCC[C@H]1CC(=O)c1ccccc1 | 7.8
CN1[C@@H](CC(=O)c2ccccc2)CCC[C@H]1/C=C/c1ccccc1 | 1.08
CN1[C@H](CCc2ccccc2)CCC[C@@H]1C[C@@H](O)c1ccccc1 [8R-hydroxylobelane] | 0.34
